Results reported in patent US12226405B2, “Compounds and compositions for inhibiting the activity of HIF2-alpha and their methods of use” (Novartis AG, priority 2020, dated 2025).

How the values were obtained:
[1] = test system: HIF2α-dependent transcription in 786-O-HRE-Luc cells; assay: In vitro cellular hypoxia response element (HRE) reporter gene assay (RGA) for HIF2α; assay type: cell-based, human; conditions: Homo sapiens, 24 hours incubation
Method in brief: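 Renal carcinoma cells carrying a 4×HRE-driven PEST-destabilised firefly luciferase were treated a day after seeding with eleven 2-fold compound dilutions (0.1% DMSO) for 24 h at 37° C. BrightGlo luminescence, background-subtracted and expressed as % of DMSO control, was fitted four-parametrically for IC50.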

[2] = biological target: HIF2α PAS-B domain (236-350, biotinylated on the N-terminus) (Homo sapiens (Human), UniProt Q99814)
Sequence of HIF2α PAS-B domain (236-350, biotinylated on the N-terminus) (Q99814 236-350): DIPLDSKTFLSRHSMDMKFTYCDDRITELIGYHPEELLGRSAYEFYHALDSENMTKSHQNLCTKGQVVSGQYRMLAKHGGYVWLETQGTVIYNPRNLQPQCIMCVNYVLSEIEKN
Procedure: The assay buffer contained 50 mM Tris-HCl pH7 (Sigma), 20 mM NaCl (Fluka), 0.02% BSA (Sigma), 0.005% Triton X-100 (Pierce) and 1 mM DTT (Fluka). After a 30 min incubation period, 5 μL Streptavidin PVT SPA Beads (Perkin Elmer) at 1.2 mg/mL, diluted in the buffer, were added.

[3] = test system: HIF2α-regulated expression of the endogenous target gene hEGLN3 in 786-O cells; assay: Cellular iScript assay for HIF2α (quantitative RT-PCR of hEGLN3); assay type: cell-based, human; conditions: Homo sapiens, 786-0, 48 hours incubation
Method in brief: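 786-O cells were exposed to eleven 2-fold compound dilutions for 48 h at 37° C. Lysates underwent one-step TaqMan qRT-PCR for hEGLN3 with beta-actin as reference; 2^(−ΔΔCt) versus DMSO, as % of control, was fit with a four-parameter model to give IC50.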

Fc1c(Cl)ccc2c1OC[C@H](F)[C@@]21CN2C=C(C(F)(F)F)C=C(OC(F)F)C2=N1 [Example 97, (3R,4S)-7-chloro-8′-(difluoromethoxy)-3,8-difluoro-6′-(trifluoromethyl)-3′H-spiro[chromane-4,2′-imidazo[1,2-a]pyridine]]
IC50 [1]: 193 nM
IC50 [2]: 11 nM
IC50 [3]: 57 nM

Cc1nccc2c1C(F)(F)CC[C@@]21CN2C=C(C(F)(F)F)C=C(OC(F)F)C2=N1 [Example 32, (S)-8-(difluoromethoxy)-8′,8′-difluoro-1′-methyl-6-(trifluoromethyl)-7′,8′-dihydro-3H,6′H-spiro[imidazo[1,2-a]pyridine-2,5′-isoquinoline]]
IC50 [1]: 861 nM
IC50 [2]: 13 nM
IC50 [3]: 78 nM

Fc1ccc2c(c1F)OCCC[C@@]21CN2C=C(C(F)(F)F)C=C(OC(F)F)C2=N1 [Example 117, (S)-8′-(difluoromethoxy)-8,9-difluoro-6′-(trifluoromethyl)-3,4-dihydro-2H,3′H-spiro[benzo[b]oxepine-5,2′-imidazo[1,2-a]pyridine]]
IC50 [1]: 281 nM
IC50 [2]: ≤ 4 nM
IC50 [3]: 24 nM

O=C1CC[C@@]2(CN3C=C(C(F)(F)F)C=C(OC(F)F)C3=N2)c2ccc(Br)c(F)c21 [Example 8, (S)-6′-bromo-8-(difluoromethoxy)-5′-fluoro-6-(trifluoromethyl)-2′H,3H-spiro[imidazo[1,2-a]pyridine-2,1′-naphthalen]-4′(3′H)-one]
IC50 [1]: 271 nM
IC50 [2]: 14 nM
IC50 [3]: 198 nM

FC(F)OC1=CC(C(F)(F)F)=CN2C[C@@]3(N=C12)c1ccc(C(F)(F)F)cc1OC[C@@H]3F [Example 61, (2′S,3R)-8′-(difluoromethoxy)-3-fluoro-6′,7-bis(trifluoromethyl)-3′H-spiro[chroman-4,2′-imidazo[1,2-a]pyridine]]
IC50 [1]: 143 nM
IC50 [2]: 17 nM
IC50 [3]: 51 nM

Fc1c(Br)ccc2c1OC[C@H](F)[C@@]21CN2C=C(C(F)(F)F)C=C(OC(F)F)C2=N1 [Example 57, (2′S,3R)-7-bromo-8′-(difluoromethoxy)-3,8-difluoro-6′-(trifluoromethyl)-3′H-spiro[chroman-4,2′-imidazo[1,2-a]pyridine]]
IC50 [1]: 196 nM
IC50 [2]: 12 nM
IC50 [3]: 62 nM

N#CC1=CN2C[C@@]3(CCCc4c3ccnc4Cl)N=C2C(OC(F)F)=C1 [Example 94, (S)-1′-chloro-8-(difluoromethoxy)-7′,8′-dihydro-3H,6′H-spiro[imidazo[1,2-a]pyridine-2,5′-isoquinoline]-6-carbonitrile]
IC50 [1]: 2260 nM
IC50 [2]: 33 nM
IC50 [3]: 197 nM

FC1=CC(C(F)(F)F)=CN2C[C@@]3(CCCc4cc(C(F)(F)F)ccc43)N=C12 [Example 77, (S)-8-fluoro-6,6′-bis(trifluoromethyl)-3′,4′-dihydro-2′H,3H-spiro[imidazo[1,2-a]pyridine-2,1′-naphthalene]]
IC50 [1]: 600 nM
IC50 [2]: ≤ 3 nM
IC50 [3]: 103 nM

N#Cc1ccc2c(c1F)[C@@H](F)CC[C@@]21CN2C=C(C(F)(F)F)C=C(OC(F)F)C2=N1 [Example 25, (1′S,4'S)-8-(difluoromethoxy)-4′,5′-difluoro-6-(trifluoromethyl)-3′,4′-dihydro-2′H,3H-spiro[imidazo[1,2-a]pyridine-2,1′-naphthalene]-6′-carbonitrile]
IC50 [1]: 202 nM
IC50 [2]: 19 nM
IC50 [3]: 83 nM

Fc1c(C(F)(F)F)ccc2c1OCC[C@@]21CN2C=C(C(F)(F)F)C=C(OC(F)F)C2=N1 [Example 40, (S)-8′-(difluoromethoxy)-8-fluoro-6′,7-bis(trifluromethyl)-3′H-spiro[chroman-4,2′-imidazo[1,2-a]pyridine]]
IC50 [1]: 190 nM
IC50 [2]: 6 nM
IC50 [3]: 50 nM

N#CC1=CN2C[C@@]3(CCSc4c(F)cccc43)N=C2C(OC(F)F)=C1 [Example 66, (S)-8-(difluoromethoxy)-8′-fluoro-3H-spiro[imidazo[1,2-a]pyridine-2,4′-thiochroman]-6-carbonitrile]
IC50 [1]: 385 nM
IC50 [2]: ≤ 8 nM
IC50 [3]: 47 nM

Fc1c(Br)ccc2c1OCC[C@@]21CN2C=C(C(F)(F)F)C=C(OC(F)F)C2=N1 [Example 39, (S)-7-bromo-8′-(difluoromethoxy)-8-fluoro-6′-(trifluoromethyl)-3′H-spiro[chroman-4,2′-imidazo[1,2-a]pyridine]]
IC50 [1]: 251 nM
IC50 [2]: ≤ 6 nM
IC50 [3]: 49 nM

Fc1c(Br)ccc2c1CCC[C@@]21CN2C=C(Cl)C=C(OC(F)F)C2=N1 [Example 89, (S)-6′-bromo-6-chloro-8-(difluoromethoxy)-5′-fluoro-3′,4′-dihydro-2′H,3H-spiro[imidazo[1,2-a]pyridine-2,1′-naphthalene]]
IC50 [1]: 220 nM
IC50 [2]: ≤ 7 nM
IC50 [3]: 34 nM

Fc1c(OC(F)(F)F)ccc2c1OCC[C@@]21CN2C=C(C(F)(F)F)C=C(OC(F)F)C2=N1 [Example 105, (S)-8′-(difluoromethoxy)-8-fluoro-7-(trifluoromethoxy)-6′-(trifluoromethyl)-3′H-spiro[chromane-4,2′-imidazo[1,2-a]pyridine]]
IC50 [1]: 248 nM
IC50 [2]: 21 nM
IC50 [3]: 183 nM

Fc1cccc2c1SCC[C@@]21CN2C=C(C(F)(F)F)C=C(OC(F)F)C2=N1 [Example 65, (S)-8-(difluoromethoxy)-8′-fluoro-6-(trifluoromethyl)-3H-spiro[imidazo[1,2-a]pyridine-2,4′-thiochroman]]
IC50 [1]: 114 nM
IC50 [2]: ≤ 3 nM
IC50 [3]: 30 nM

N#CC1=CN2C[C@@]3(CCCc4c3ccc(F)c4F)N=C2C(OC(F)F)=C1 [Example 91, (S)-8-(difluoromethoxy)-5′,6′-difluoro-3′,4′-dihydro-2′H,3H-spiro[imidazo[1,2-a]pyridine-2,1′-naphthalene]-6-carbonitrile]
IC50 [1]: 262 nM
IC50 [2]: 5 nM
IC50 [3]: 30 nM

N#Cc1ccc2c(c1F)SCC[C@@]21CN2C=C(C(F)(F)F)C=C(OC(F)F)C2=N1 [Example 111, (S)-8-(difluoromethoxy)-8′-fluoro-6-(trifluoromethyl)-3H-spiro[imidazo[1,2-a]pyridine-2,4′-thiochromane]-7′-carbonitrile]
IC50 [1]: 100 nM
IC50 [2]: 9 nM
IC50 [3]: 43 nM

Fc1cccc2c1CCC[C@@]21CN2C=C(C(F)(F)F)C=C(OC(F)F)C2=N1 [Example 28, (S)-8-(difluoromethoxy)-5′-fluoro-6-(trifluoromethyl)-3′,4′-dihydro-2′H,3H-spiro[imidazo[1,2-a]pyridine-2,1′-naphthalene]]
IC50 [1]: 169 nM
IC50 [2]: 5 nM
IC50 [3]: 66 nM

FCOC1=CC(C(F)(F)F)=CN2C[C@@]3(CCSc4c3cnc(C(F)(F)F)c4F)N=C12 [Example 114, (S)-8′-fluoro-8-(fluoromethoxy)-6,7′-bis(trifluoromethyl)-2′,3′-dihydro-3H-spiro[imidazo[1,2-a]pyridine-2,4′-thiopyrano[3,2-c]pyridine]]
IC50 [1]: 356 nM
IC50 [2]: 42 nM
IC50 [3]: 84 nM

O=C1c2c(ccc(Br)c2F)[C@@]2(C[C@H]1F)CN1C=C(C(F)(F)F)C=C(OC(F)F)C1=N2 [Example 9, (1′S)-6′-bromo-8-(difluoromethoxy)-3′,5′-difluoro-6-(trifluoromethyl)-2′H,3H-spiro[imidazo[1,2-a]pyridine-2,1′-naphthalen]-4′(3H′)-one]
IC50 [1]: 2210 nM
IC50 [2]: 15 nM
IC50 [3]: 173 nM

Fc1cccc2c1OCCC[C@@]21CN2C=C(C(F)(F)F)C=C(OC(F)F)C2=N1 [Example 69, (S)-8′-(difluoromethoxy)-9-fluoro-6′-(trifluoromethyl)-3,4-dihydro-2H,3′H-spiro[benzo[b]oxepine-5,2′-imidazo[1,2-a]pyridine]]
IC50 [1]: 273 nM
IC50 [2]: 9 nM
IC50 [3]: 44 nM

FC(F)OC1=CC(C(F)(F)F)=CN2C[C@@]3(CCCc4cc(Cl)ncc43)N=C12 [Example 37, (S)-3′-chloro-8-(difluoromethoxy)-6-(trifluoromethyl)-6′,7′-dihydro-3H,5′H-spiro[imidazo[1,2-a]pyridine-2,8′-isoquinoline]]
IC50 [1]: 308 nM
IC50 [2]: 25 nM
IC50 [3]: 89 nM

N#CC1=CN2C[C@@]3(CCCc4cc(F)ccc43)N=C2C(OC(F)F)=C1 [Example 35, (S)-8-(difluoromethoxy)-6′-fluoro-3′,4′-dihydro-2′H,3H-spiro[imidazo[1,2-a]pyridine-2,1′-naphthalene]-6-carbonitrile]
IC50 [1]: 267 nM
IC50 [2]: 9 nM
IC50 [3]: 83 nM

FCOC1=CC(C(F)(F)F)=CN2C[C@@]3(CCOc4c3ccc(Br)c4F)N=C12 [Example 42, (S)-7-bromo-8-fluoro-8′-(fluoromethoxy)-6′-(trifluoromethyl)-3′H-spiro[chroman-4,2′-imidazo[1,2-a]pyridine]]
IC50 [1]: 96 nM
IC50 [2]: 8 nM
IC50 [3]: 72 nM

FC(F)OC1=CC(C(F)(F)F)=CN2C[C@@]3(CCOc4c3ccc(Br)c4Cl)N=C12 [Example 100, (S)-7-bromo-8-chloro-8′-(difluoromethoxy)-6′-(trifluoromethyl)-3′H-spiro[chromane-4,2′-imidazo[1,2-a]pyridine]]
IC50 [1]: 106 nM
IC50 [2]: 4 nM
IC50 [3]: 63 nM

Fc1ccc2c(c1F)CC[C@@]21CN2C=C(C(F)(F)F)C=C(OC(F)F)C2=N1 [Example 2, (S)-8-(difluoromethoxy)-4′,5′-difluoro-6-(trifluoromethyl)-2′,3′-dihydro-3H-spiro[imidazo[1,2-a]pyridine-2,1′-indene]]
IC50 [1]: 1530 nM
IC50 [2]: 12 nM
IC50 [3]: 152 nM
